Measurements taken from PubChem BioAssay AID248 (DTP/NCI, 2004).
Inconclusive results and toxic doses are left out.

Test system: L1210 leukemia ip in BDF1 mice, survival T/C
Assay: NCI In Vivo Anticancer Drug Screen. Data for tumor model L1210 Leukemia (intraperitoneal) in B6D2F1 (BDF1) mice
Conditions: endpoint: mean survival time, higher = longer survival
Outline: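 Transplanted-tumor mice were given test agent; controls received vehicle only. Survival readings from the two groups were divided (treated over control).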

[1] = dose: 5.0 mg/kg/injection, schedule: Q01DX Z (ip), vehicle: carboxymethylcellulose (CMC)
[2] = dose: 10.0 mg/kg/injection, schedule: Q01DX Z (ip), vehicle: carboxymethylcellulose (CMC)
[3] = dose: 20.0 mg/kg/injection, schedule: Q01DX Z (ip), vehicle: carboxymethylcellulose (CMC)
[4] = dose: 100.0 mg/kg/injection, schedule: Q04DX003 (ip), vehicle: saline with Tween-80
[5] = dose: 200.0 mg/kg/injection, schedule: Q04DX003 (ip), vehicle: saline with Tween-80
[6] = dose: 400.0 mg/kg/injection, schedule: Q04DX003 (ip), vehicle: saline with Tween-80

Q: Which T/C [1] does the source give for CCCCCCCCP(=O)(N1CC1)N1CC1 here?
A: 107 % of control

Q: What about the T/C (dose: 6.25 mg/kg/injection, schedule: Q01DX Z (ip), vehicle: carboxymethylcellulose (CMC)) of the same molecule?
A: 98 % of control

Q: And the T/C [2]?
A: 102 % of control

Q: And the T/C (dose: 12.5 mg/kg/injection, schedule: Q01DX Z (ip), vehicle: carboxymethylcellulose (CMC))?
A: 110 % of control

Q: And the T/C [3]?
A: 110 % of control

Q: And the T/C (dose: 25.0 mg/kg/injection, schedule: Q01DX Z (ip), vehicle: carboxymethylcellulose (CMC))?
A: 113 % of control

Q: And the T/C (dose: 40.0 mg/kg/injection, schedule: Q01DX Z (ip), vehicle: carboxymethylcellulose (CMC))?
A: 117 % of control

Q: What about the T/C (dose: 50.0 mg/kg/injection, schedule: Q01DX Z (ip), vehicle: carboxymethylcellulose (CMC)) of the same molecule?
A: 120 % of control

Q: What does the source list for CC(C)(C)c1ccc(P(=O)(O)C(C)(C)C)cc1?
A: T/C (dose: 75.0 mg/kg/injection, schedule: Q01DX001 (ip), vehicle: saline): 96 % of control; T/C (dose: 150.0 mg/kg/injection, schedule: Q01DX001 (ip), vehicle: saline): 102 % of control

Q: NC(=O)NC1CCCC1 was tested. Which T/C [4] did it give?
A: 93 % of control

Q: What about the T/C [5] of the same molecule?
A: 89 % of control

Q: What about the T/C [6] of the same molecule?
A: 93 % of control

Q: Which results are given for CC(C)c1cc(C(C)C)c(S(=O)(=O)/C=C/c2ccccc2)c(C(C)C)c1?
A: T/C (dose: 100.0 mg/kg/injection, schedule: Q01DX001 (ip), vehicle: saline): 104 % of control; T/C (dose: 100.0 mg/kg/injection, schedule: Q01DX009 (ip), vehicle: saline): 91 % of control; T/C (dose: 100.0 mg/kg/injection, schedule: Q04DX003 (ip), vehicle: acetone): 100 % of control; T/C (dose: 200.0 mg/kg/injection, schedule: Q01DX001 (ip), vehicle: saline): 97 % of control; T/C (dose: 200.0 mg/kg/injection, schedule: Q01DX009 (ip), vehicle: saline): 93 % of control; T/C (dose: 200.0 mg/kg/injection, schedule: Q04DX003 (ip), vehicle: acetone): 97 % of control; T/C (dose: 400.0 mg/kg/injection, schedule: Q01DX001 (ip), vehicle: saline): 92 % of control; T/C (dose: 400.0 mg/kg/injection, schedule: Q01DX009 (ip), vehicle: saline): 89 % of control; T/C (dose: 400.0 mg/kg/injection, schedule: Q04DX003 (ip), vehicle: acetone): 105 % of control

Q: What does the source list for O=C(Nc1ccc(C2=NCCN2)cc1)c1cccc(C(=O)Nc2ccc(C3=NCCN3)cc2)c1O?
A: T/C (dose: 2.5 mg/kg/injection, schedule: Q01DX Z (ip), vehicle: carboxymethylcellulose (CMC)): 120 % of control; T/C [1]: 105 % of control; T/C (dose: 7.5 mg/kg/injection, schedule: Q01DX Z (ip), vehicle: carboxymethylcellulose (CMC)): 109 % of control; T/C [2]: 157 % of control; T/C (dose: 15.0 mg/kg/injection, schedule: Q01DX Z (ip), vehicle: carboxymethylcellulose (CMC)): 259 % of control; T/C [3]: 272 % of control; T/C (dose: 30.0 mg/kg/injection, schedule: Q01DX Z (ip), vehicle: carboxymethylcellulose (CMC)): 296 % of control; T/C (dose: 31.0 mg/kg/injection, schedule: Q01DX Z (oral), vehicle: carboxymethylcellulose (CMC)): 106 % of control; T/C (dose: 62.0 mg/kg/injection, schedule: Q01DX Z (oral), vehicle: carboxymethylcellulose (CMC)): 102 % of control; T/C (dose: 125.0 mg/kg/injection, schedule: Q01DX Z (oral), vehicle: carboxymethylcellulose (CMC)): 113 % of control; T/C (dose: 250.0 mg/kg/injection, schedule: Q01DX Z (oral), vehicle: carboxymethylcellulose (CMC)): 104 % of control

Q: For O=C(c1ccccc1)c1ccc(N2CCOCC2)cc1, which T/C (dose: 100.0 mg/kg/injection, schedule: Q01DX001 (ip), vehicle: other) is on record?
A: 96 % of control

Q: And the T/C (dose: 200.0 mg/kg/injection, schedule: Q01DX001 (ip), vehicle: other)?
A: 98 % of control

Q: And the T/C (dose: 400.0 mg/kg/injection, schedule: Q01DX001 (ip), vehicle: other)?
A: 90 % of control

Q: How did the T/C (dose: 50.0 mg/kg/injection, schedule: Q01DX009 (ip), vehicle: Klucel (hydroxypropylcellulose) (HPC)) turn out when Cc1nccnc1Sc1ccc(Br)cc1 was run?
A: 106 % of control

Q: And the T/C (dose: 100.0 mg/kg/injection, schedule: Q01DX009 (ip), vehicle: Klucel (hydroxypropylcellulose) (HPC))?
A: 113 % of control

Q: What about the T/C (dose: 200.0 mg/kg/injection, schedule: Q01DX009 (ip), vehicle: Klucel (hydroxypropylcellulose) (HPC)) of the same molecule?
A: 106 % of control

Q: What does the source list for CCCCCCCCCCCCCCCC(=O)N(c1ccc(N)cc1)C(C)CCCN(CC)CC (stereo not given)?
A: T/C (dose: 100.0 mg/kg/injection, schedule: Q01DX009 (ip), vehicle: saline with Tween-80): 100 % of control; T/C [4]: 98 % of control; T/C (dose: 200.0 mg/kg/injection, schedule: Q01DX009 (ip), vehicle: saline with Tween-80): 100 % of control; T/C [5]: 97 % of control; T/C (dose: 400.0 mg/kg/injection, schedule: Q01DX009 (ip), vehicle: saline with Tween-80): 100 % of control; T/C [6]: 90 % of control
